ChEMBL document CHEMBL3046747, “Assessment of species specificity of moulting accelerating compounds in Lepidoptera: comparison of activity between Bombyx mori and Spodoptera littoralis by in vitro reporter and in vivo toxicity assays” (Pest Manag Sci, 2010)

Experiments:
Ecdysone receptor [1] = target: T1, Ecdysone receptor (Spodoptera littoralis, UniProt E3UJZ5); test: Agonist activity at ecdysone receptor in Spodoptera littoralis Sl2 cells after 24 hr by luciferase reporter gene assay; type: cell-based; settings: read-out: pEC50 (converted)
T1 sequence (E3UJZ5 whole entry): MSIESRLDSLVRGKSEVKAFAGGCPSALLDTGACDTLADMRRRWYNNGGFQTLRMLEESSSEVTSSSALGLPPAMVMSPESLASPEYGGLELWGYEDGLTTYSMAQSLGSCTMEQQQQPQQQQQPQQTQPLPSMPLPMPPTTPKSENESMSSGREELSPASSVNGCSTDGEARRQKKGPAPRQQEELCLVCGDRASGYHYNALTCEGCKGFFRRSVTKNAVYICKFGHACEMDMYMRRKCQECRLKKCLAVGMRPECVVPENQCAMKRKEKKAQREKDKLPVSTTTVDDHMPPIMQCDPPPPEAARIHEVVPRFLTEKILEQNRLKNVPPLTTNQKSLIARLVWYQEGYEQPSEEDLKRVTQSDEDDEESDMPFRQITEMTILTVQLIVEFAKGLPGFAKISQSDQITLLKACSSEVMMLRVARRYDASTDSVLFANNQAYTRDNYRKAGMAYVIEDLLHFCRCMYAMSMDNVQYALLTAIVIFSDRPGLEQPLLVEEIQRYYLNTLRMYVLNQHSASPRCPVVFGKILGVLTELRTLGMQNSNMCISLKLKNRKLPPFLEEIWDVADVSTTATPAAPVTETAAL

[2] = Selectivity ratio of EC50 for ecdysone receptor in Bombyx mori Bm5 cells to EC50 for ecdysone receptor in Spodoptera littoralis Sl2 cells; type: cell-based
[3] = target: T2, Ecdysone receptor (Spodoptera littoralis) (UniProt E3UJZ5); test: Agonist activity at ecdysone receptor in Spodoptera littoralis Sl2 cells after 24 hr by luciferase reporter gene assay relative to tebufenozide; type: cell-based
T2 sequence (whole entry): T1 sequence (E3UJZ5 whole entry)

[4] = target: T3, Ecdysone receptor (Bombyx mori) (UniProt P49881); test: Agonist activity at ecdysone receptor in Bombyx mori Bm5 cells after 24 hr by luciferase reporter gene assay relative to tebufenozide; type: cell-based
T3 sequence (whole entry): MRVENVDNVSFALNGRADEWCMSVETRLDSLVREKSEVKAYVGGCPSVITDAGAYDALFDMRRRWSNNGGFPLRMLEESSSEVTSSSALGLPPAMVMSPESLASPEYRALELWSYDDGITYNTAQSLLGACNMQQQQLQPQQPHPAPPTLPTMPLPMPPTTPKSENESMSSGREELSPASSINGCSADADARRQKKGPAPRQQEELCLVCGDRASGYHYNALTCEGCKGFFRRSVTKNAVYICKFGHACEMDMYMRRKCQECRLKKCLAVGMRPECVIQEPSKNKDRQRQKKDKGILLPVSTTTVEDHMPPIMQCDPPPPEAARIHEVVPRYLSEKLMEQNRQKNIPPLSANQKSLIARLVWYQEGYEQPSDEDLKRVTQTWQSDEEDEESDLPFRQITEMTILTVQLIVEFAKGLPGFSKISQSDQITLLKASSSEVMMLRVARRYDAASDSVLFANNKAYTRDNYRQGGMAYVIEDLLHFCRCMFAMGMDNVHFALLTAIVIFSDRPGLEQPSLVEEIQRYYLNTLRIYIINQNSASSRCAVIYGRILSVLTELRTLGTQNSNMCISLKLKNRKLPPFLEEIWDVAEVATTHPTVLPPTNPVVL

Ecdysone receptor [5] = target: T4, Ecdysone receptor (Bombyx mori, UniProt P49881); test: Agonist activity at ecdysone receptor in Bombyx mori Bm5 cells after 24 hr by luciferase reporter gene assay; type: cell-based; settings: read-out: pEC50 (converted)
T4 sequence (P49881 whole entry): T3 sequence (whole entry)

Spodoptera littoralis = test: Larvicidal activity against Spodoptera littoralis assessed as mortality applied topically after 1 week; type: functional
Bombyx mori = test: Larvicidal activity against Bombyx mori assessed as mortality applied topically after 1 week; type: functional
[6] = Ratio of LD50 for Spodoptera littoralis to LD50 for Bombyx mori; type: functional

Compound	EC50 (Ecdysone receptor [1])	Ratio EC50 [2]	Efficacy [3]	Efficacy [4]	EC50 (Ecdysone receptor [5])	pLD50 (Spodoptera littoralis)	pLD50 (Bombyx mori)	Ratio [6]
CC(C)c1ccc(C(=O)NN(C(=O)c2ccccc2Cl)C(C)(C)C)cc1	17.4 nM	0.38	95%	116%	6.61 nM			
CC(C)(C)N(NC(=O)c1ccc(Cl)cc1)C(=O)c1ccccc1 [HALOFENOZIDE]	457 nM	0.17	107%	95%	77.6 nM	5.43	6.52	12.3
Cc1ccccc1C(=O)NN(C(=O)c1ccccc1Cl)C(C)(C)C	437 nM	0.3	124%	98%	129 nM	<5.46	6.69	> 17
CC(C)(C)N(NC(=O)c1ccccc1)C(=O)c1ccccc1C(F)(F)F	794 nM	1.1	98%	92%	871 nM			
CCOc1ccccc1C(=O)N(NC(=O)c1ccc(OC)cc1)C(C)(C)C	21900 nM	0.87	45%	59%	19100 nM			
CC(C)(C)N(NC(=O)c1ccc(Br)cc1)C(=O)c1ccccc1Cl	437 nM	0.34	77%	106%	151 nM	<5.39	6.27	> 7.59
CCCCCc1ccc(C(=O)NN(C(=O)c2ccccc2Cl)C(C)(C)C)cc1	324 nM	1.32	86%	97%	427 nM			
COc1ccc(C(=O)NN(C(=O)c2ccccc2Cl)C(C)(C)C)cc1	339 nM	0.4	85%	126%	135 nM	<5.44	6.53	> 12.3
CCCCc1ccc(C(=O)NN(C(=O)c2ccccc2OCC)C(C)(C)C)cc1	7760 nM	2.09	41%	20%	16200 nM			
Cc1c(C(=O)NN(C(=O)c2ccccc2Cl)C(C)(C)C)ccc2c1CCCO2	5.37 nM	0.53	108%	106%	2.88 nM	<4.4	6.95	> 355
CCc1ccc(C(=O)NN(C(=O)c2cc(C)cc(C)c2)C(C)(C)C)cc1 [TEBUFENOZIDE]	2.19 nM	0.51	100%	100%	1.12 nM	6.58	7.6	10.5
CC(C)(C)N(NC(=O)c1ccccc1)C(=O)c1ccc(Cl)c(Cl)c1Cl	5250 nM	0.69	95%	79%	3630 nM	<5.4	<5.4	
Cc1cc(C)cc(C(=O)N(NC(=O)c2cccc(C)c2C)C(C)(C)C)c1	16.2 nM	0.68	63%	82%	11 nM	6.44	7.29	7.08
Cc1cc(C)cc(C(=O)N(NC(=O)c2ccc(C(C)(C)C)cc2)C(C)(C)C)c1	7.08 nM	1.01	69%	88%	7.08 nM	4.72	7.19	> 295
CCOc1ccccc1C(=O)N(NC(=O)c1ccc(Cl)cc1)C(C)(C)C	9550 nM	0.81	80%	74%	7760 nM			
Cc1cc(C)c(Cl)c(C(=O)N(NC(=O)c2ccc(Cl)cc2)C(C)(C)C)c1	1070 nM	0.42	101%	93%	447 nM			

Compound	EC50 (Ecdysone receptor [1])	Ratio EC50 [2]	Efficacy [3]	Efficacy [4]	EC50 (Ecdysone receptor [5])	pLD50 (Spodoptera littoralis)	pLD50 (Bombyx mori)	Ratio [6]
COc1ccc(C(=O)NN(C(=O)c2cc(C)cc(C)c2Cl)C(C)(C)C)cc1	2040 nM	0.6	105%	100%	1230 nM			
CCOc1ccccc1C(=O)N(NC(=O)c1ccc(CC)cc1)C(C)(C)C	6920 nM	0.42	89%	92%	2880 nM			
CCCc1ccc(C(=O)NN(C(=O)c2ccccc2Cl)C(C)(C)C)cc1	74.1 nM	0.42	75%	107%	30.9 nM			
Cc1cc(C)c(Cl)c(C(=O)N(NC(=O)c2ccccc2)C(C)(C)C)c1	1740 nM	0.68	87%	92%	1170 nM			
Cc1cc(C)cc(C(=O)C2(NC(=O)c3ccc4c(c3C)CCCO4)CCCCC2)c1	3.39 nM	1.29	106%	102%	4.37 nM	<5.39	6.53	> 13.8
Cc1ccc(C(=O)NN(C(=O)c2cc(C)cc(C)c2Cl)C(C)(C)C)cc1	1350 nM	0.22	85%	108%	302 nM			
COc1cccc(C(=O)NN(C(=O)c2cc(C)cc(C)c2)C(C)(C)C)c1C [METHOXYFENOZIDE]	6.03 nM	0.56	100%	103%	3.39 nM	7.68	8.18	3.16
CCc1ccc(C(=O)NN(C(=O)c2cc(C)cc(C)c2Cl)C(C)(C)C)cc1	339 nM	0.34	83%	85%	115 nM	<4.41	4.94	> 3.39
CCc1ccc(C(=O)NN(C(=O)c2ccccc2)C(C)(C)C)cc1	110 nM	0.16	110%	84%	17.4 nM	<5.49	7.09	> 39.8
Cc1cc(C)c(Cl)c(C(=O)N(NC(=O)c2ccc3c(c2C)CCCO3)C(C)(C)C)c1	67.6 nM	0.49	114%	95%	33.1 nM	<4.36	5.01	> 4.47
CCc1ccc(C(=O)NC2(C(=O)c3cc(C)cc(C)c3)CCCCC2)cc1	120 nM	0.65	101%	112%	77.6 nM	<4.44	6.08	> 23.4
Cc1ccccc1C(=O)N(NC(=O)c1cccc(F)c1)C(C)(C)C	457 nM	0.7	120%	92%	324 nM			
CCC(CC)(NC(=O)c1ccc2c(c1C)CCCO2)C(=O)c1cc(C)cc(C)c1	166 nM	1.15	104%	113%	191 nM			
CCCCCc1ccc(C(=O)NN(C(=O)c2cc(C)cc(C)c2Cl)C(C)(C)C)cc1	3550 nM	0.5	76%	45%	1780 nM			
CCc1ccc(C(=O)NC(CC)(CC)C(=O)c2cc(C)cc(C)c2)cc1	4270 nM	0.29	96%	95%	1260 nM			
CCCCc1ccc(C(=O)NN(C(=O)c2cc(C)cc(C)c2Cl)C(C)(C)C)cc1	1120 nM	1.02	69%	45%	1150 nM			
